Test results from patent US20040241154A1, “Secretin for the treatment of asthma” (priority 2001, published 2004).
Blank lines part the entries; values can stand above or below the molecule they belong to.

Tests used:
human tertiary bronchus = assay: Short circuit current across human tertiary bronchus wall in modified Ussing chamber
[1] = tested on: primary human, tertiary bronchial epithelial cells; assay: Cl- efflux from primary human tertiary bronchial epithelial cells (MQAE fluorescence); assay type: cell-based
Method: Ionic movement in tertiary bronchial epithelial cells was further characterised with the use of the Cl^− specific fluorescent probe MQAE (n-(ethoxycarbonylmethyl)-6-methoxyquinolinium bromide; Molecular Probes). In brief, primary human, tertiary bronchial epithelial cells were isolated as described above and cultured in a 96 well plate. On reaching confluency, cells were loaded overnight with 4 mM MQAE. Cells were washed in a chloride containing HEPES buffer, before passive Cl^− efflux was initiated by the addition of a Cl^− free buffer.
The experiment of example 3a above was repeated using a range of secretin concentrations from 1 to 1000 nM.

[2] = tested on: epithelial cells derived from the human tertiary bronchus; assay: Short circuit current in cultured tertiary bronchial epithelial cell monolayers in modified Ussing chamber; assay type: cell-based
Excerpt: Functional effects of the secretin receptor were probed in epithelial cells derived from the human tertiary bronchus. In brief, tertiary bronchial epithelial were isolated by overnight protease digestion and then cultured until confluency on Snapwell (Costar) permeable supports. The supports were mounted in a modified Ussing chamber, and both luminal and basolateral membranes were bathed in oxygenated Krebs extracellular solution. The cells were voltage clamped to zero to allow changes in short circuit current in response to secretin to be measured. As previously described, 10 μM amiloride was initially added to the luminal membrane (FIG. 4, point a) followed by the addition of 100 nM secretin to the luminal membrane (FIG. 4, point b).

tertiary bronchial rings = assay: Relaxation of carbachol precontracted human tertiary bronchial rings in organ bath
Method: The bronchorelaxant properties of secretin was examined in vitro, in the tertiary bronchus of non-diseased tissue. […] Tissues were precontracted with carbachol at the concentration being that which caused a contraction approximately 60-70% of the maximum, and a cumulative concentration-effect contractile curve (CEC) to secretin (0.01 μM to 3 μM) was constructed on each preparation.

[3] = 10 μM ATP or UTP added to apical membrane of the lung epithelium

SMILES: Nc1ncnc2c1ncn2[C@@H]1O[C@H](COP(=O)(O)OP(=O)(O)OP(=O)(O)O)[C@@H](O)[C@H]1O [ATP]
ionic movement (short circuit current) (human tertiary bronchus; [3]): stimulate a similar ionic movement of similar magnitude

SMILES: O=C(O)c1cc([N+](=O)[O-])ccc1NCCCc1ccccc1 [NPPB, 5-nitro-2-(3-phenylpropyl-amino)benzoic acid]
effect on 100 nM secretin mediated changes in fluorescence ([1]; 100 μM NPPB): abolished

SMILES: O=c1ccn([C@@H]2O[C@H](COP(=O)(O)OP(=O)(O)OP(=O)(O)O)[C@@H](O)[C@H]2O)c(=O)[nH]1 [UTP]
ionic movement (short circuit current) (human tertiary bronchus; [3]): stimulate a similar ionic movement of similar magnitude

SMILES: COc1ccc(Cl)cc1C(=O)NCCc1ccc(S(=O)(=O)NC(=O)NC2CCCCC2)cc1 [glibenclamide]
suppression of secretin mediated ionic movement ([2]; 500 μM glibenclamide after 100 nM secretin): failed to suppress secretin mediated ionic movement

mean pEC50, relaxation (tertiary bronchial rings; carbachol precontracted tertiary bronchial rings): 6.8±0.2
SMILES: CC(C)C[C@H](NC(=O)CNC(=O)[C@H](CCC(N)=O)NC(=O)[C@H](CC(C)C)NC(=O)[C@H](CC(C)C)NC(=O)[C@H](CCCNC(=N)N)NC(=O)[C@H](CCC(N)=O)NC(=O)[C@H](CC(C)C)NC(=O)[C@H](CCCNC(=N)N)NC(=O)[C@H](C)NC(=O)CNC(=O)[C@H](CCC(=O)O)NC(=O)[C@H](CCCNC(=N)N)NC(=O)[C@H](CC(C)C)NC(=O)[C@H](CCCNC(=N)N)NC(=O)[C@H](CO)NC(=O)[C@H](CC(C)C)NC(=O)[C@H](CCC(=O)O)NC(=O)[C@H](CO)NC(=O)[C@@H](NC(=O)[C@H](Cc1ccccc1)NC(=O)[C@@H](NC(=O)CNC(=O)[C@H](CC(=O)O)NC(=O)[C@H](CO)NC(=O)[C@@H](N)Cc1c[nH]cn1)[C@@H](C)O)[C@@H](C)O)C(=O)N[C@H](C(N)=O)C(C)C [secretin]
ionic movement (short circuit current) (human tertiary bronchus; 3 μM human secretin added to luminal membrane after 10 μM amiloride, non-asthma donors): stimulate ionic movement in a manner consistent with the movement of a negatively charged ion
ionic movement (short circuit current) ([2]; 100 nM secretin added to luminal membrane after 10 μM amiloride): stimulated ionic movement in a manner consistent with the movement of a negatively charged ion
Cl- efflux (changes in MQAE fluorescence) ([1]; 12.5 nM secretin): stimulated Cl^− efflux
Cl- efflux (changes in MQAE fluorescence) ([1]; 100 nM secretin): stimulated Cl^− efflux
Maximal secretin stimulated Cl- efflux ([1]; compared with Prostaglandin E2 (10 μM), secretin 1 to 1000 nM): of a similar magnitude to that observed to Prostaglandin E2
Log EC50 (M), Cl- efflux ([1]; printed as negative Log EC50, mean ± s.e.mean, 2 to 6 independent experiments, cells from 6 donors, normalised to PGE2): -7.64±0.24 M
relaxations of the carbachol-evoked tone (tertiary bronchial rings; secretin 0.01 μM to 3 μM, in 7 of the 8 preparations tested): concentration-dependent relaxations
mean relaxation as % of the relaxation observed to isoprenaline (1 μM) (tertiary bronchial rings; secretin 3 μM, n=7 preparations from 4 donors): 37±11%
